Results reported in patent US4395417A, “Antihyperlipidemic compositions” (Research Corporation, priority 1980, dated 1983).
Like-named read-outs stand apart in the source and are kept apart here. Each block holds one molecule with its values, some of them ahead of it.

Legend:
[1] = tested on: ovariectomized immature females; test: Uterotropic effects in ovariectomized immature females; assay type: in vivo, mice; details: 20 mg/kg
serum triglyceride = test: Serum triglyceride levels of male mice (Hycel commercial kits); assay type: in vivo, male CF1 mice; details: Mus musculus, ip, 336 h
Method: (§1) For hypolipidemic activity, the compounds were tested at 20 mg/kg/day administered I.P. to male CF1 mice (~30 g). On days 9 and 16 blood was collected by tail-vein bleeding. Serum cholesterol was determined by the Liebermann-Burchard reaction. Serum triglyceride levels were determined using the Hycel commercial kits on a separate group of mice, which were bled on day 14.

Citrate Lyase = target: T1, Citrate Lyase (Mus musculus, UniProt Q91V92); test: In vitro effect on citrate lyase; assay type: biochemical; details: Table 2, N = 6, x ± S.D., control 30.5 mg of citrate hydrolyzed/gm wet tissue/30 min.
T1 construct: 30.5 mg of citrate hydrolyzed/gm wet tissue/30 min; from tissue
T1 sequence (Q91V92 1-1091): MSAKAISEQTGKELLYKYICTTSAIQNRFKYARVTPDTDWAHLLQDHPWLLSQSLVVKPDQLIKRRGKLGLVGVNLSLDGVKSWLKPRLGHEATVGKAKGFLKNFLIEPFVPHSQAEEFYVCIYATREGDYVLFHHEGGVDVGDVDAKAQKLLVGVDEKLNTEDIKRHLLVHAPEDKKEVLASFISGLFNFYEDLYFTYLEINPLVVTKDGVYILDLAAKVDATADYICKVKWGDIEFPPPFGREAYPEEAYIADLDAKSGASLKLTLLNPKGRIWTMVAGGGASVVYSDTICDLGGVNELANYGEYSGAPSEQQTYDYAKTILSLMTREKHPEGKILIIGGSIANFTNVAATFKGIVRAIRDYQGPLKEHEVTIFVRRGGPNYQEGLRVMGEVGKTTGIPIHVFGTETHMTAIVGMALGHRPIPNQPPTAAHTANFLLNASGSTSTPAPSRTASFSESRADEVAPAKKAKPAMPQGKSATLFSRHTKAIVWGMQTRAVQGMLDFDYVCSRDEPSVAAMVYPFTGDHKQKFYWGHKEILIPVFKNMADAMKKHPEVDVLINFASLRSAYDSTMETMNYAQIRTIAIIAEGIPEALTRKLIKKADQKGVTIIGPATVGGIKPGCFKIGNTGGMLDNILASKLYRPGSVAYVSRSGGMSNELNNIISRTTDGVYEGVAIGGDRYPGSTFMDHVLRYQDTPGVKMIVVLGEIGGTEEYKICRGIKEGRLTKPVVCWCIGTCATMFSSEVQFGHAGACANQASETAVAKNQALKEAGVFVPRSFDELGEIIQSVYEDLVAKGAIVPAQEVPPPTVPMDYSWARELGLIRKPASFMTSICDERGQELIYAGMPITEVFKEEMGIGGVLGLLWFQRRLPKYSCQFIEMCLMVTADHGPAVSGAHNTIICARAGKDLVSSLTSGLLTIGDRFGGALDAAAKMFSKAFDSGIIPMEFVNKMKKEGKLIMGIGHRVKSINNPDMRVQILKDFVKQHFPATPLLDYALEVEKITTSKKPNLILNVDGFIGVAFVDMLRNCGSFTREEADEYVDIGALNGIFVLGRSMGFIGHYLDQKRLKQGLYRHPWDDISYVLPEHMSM

[2] = Acute toxicity (LD50) in mice; assay type: in vivo; details: mouse, in vivo
Text: (§2) They also are non-toxic. […] Moreover, there is no evidence that the weight of any of the major organs is altered as a result of treatment with compounds used in the invention.

mice = test: Acute toxicity (LD50) in mice; assay type: in vivo; details: 2 g/kg
Text: as §2

Acetyl-CoA Synthetase = target: T2, Acetyl-CoA Synthetase (Mus musculus, UniProt Q9QXG4); test: In vitro acetyl coenzyme A synthetase activity (method of Goodridge); assay type: biochemical, mice; details: for Acetyl-CoA Synthetase: Table 2, N = 6, x ± S.D., control 28.5 mg acetyl CoA formed/gm wet tissue/30 min.; for in vitro AcCoA synthetase: Table 3, N = 6, control 10.8 mg/g wet tissue
T2 construct: gm wet tissue/30 min; from tissue
T2 sequence (Q9QXG4 whole entry): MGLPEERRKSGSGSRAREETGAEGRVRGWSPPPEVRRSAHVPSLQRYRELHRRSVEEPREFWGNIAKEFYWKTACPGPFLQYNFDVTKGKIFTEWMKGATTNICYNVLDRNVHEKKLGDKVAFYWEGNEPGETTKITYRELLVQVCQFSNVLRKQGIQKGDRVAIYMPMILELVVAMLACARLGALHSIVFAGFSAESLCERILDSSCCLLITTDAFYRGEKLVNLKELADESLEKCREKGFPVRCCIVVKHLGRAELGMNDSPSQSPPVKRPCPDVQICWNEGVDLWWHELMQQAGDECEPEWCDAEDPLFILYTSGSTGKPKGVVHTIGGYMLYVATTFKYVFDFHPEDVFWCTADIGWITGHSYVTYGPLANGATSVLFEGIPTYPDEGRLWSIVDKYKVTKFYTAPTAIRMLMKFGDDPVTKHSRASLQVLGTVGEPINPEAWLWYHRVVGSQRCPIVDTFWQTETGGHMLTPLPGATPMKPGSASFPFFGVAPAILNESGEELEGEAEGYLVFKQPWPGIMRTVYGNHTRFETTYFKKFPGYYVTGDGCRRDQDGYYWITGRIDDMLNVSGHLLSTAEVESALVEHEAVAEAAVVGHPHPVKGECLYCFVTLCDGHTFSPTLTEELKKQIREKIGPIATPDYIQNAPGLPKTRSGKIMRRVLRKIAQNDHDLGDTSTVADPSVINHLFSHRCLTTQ

Acetyl-CoA Carboxylase = target: T3, Acetyl-CoA Carboxylase (Mus musculus, UniProt Q5SWU9); test: In vitro acetyl coenzyme A carboxylase activity (method of Greenspan and Lowenstein); assay type: biochemical; details: Table 2, N = 6, x ± S.D., control 32,010 dpm/gm wet tissue/30 min.
T3 construct: 32,010 dpm/gm wet tissue/30 min; from tissue

[3] = Size of vas deferens, vesicular or testes after 16 day treatment in mice; assay type: in vivo; details: 16 day treatment at 10 (mg/kg)/day
serum cholesterol = test: Serum cholesterol of male CF1 mice (Liebermann-Burchard reaction); assay type: in vivo; details: Mus musculus, ip
Method: as §1

Fatty Acid Synthetase = target: T4, Fatty Acid Synthetase (Mus musculus, UniProt P19096); test: In vitro effect on fatty acid synthetase; assay type: biochemical; details: Table 2, N = 6, x ± S.D.
T4 construct: gm wet tissue/30 min; from tissue
T4 sequence (P19096 whole entry): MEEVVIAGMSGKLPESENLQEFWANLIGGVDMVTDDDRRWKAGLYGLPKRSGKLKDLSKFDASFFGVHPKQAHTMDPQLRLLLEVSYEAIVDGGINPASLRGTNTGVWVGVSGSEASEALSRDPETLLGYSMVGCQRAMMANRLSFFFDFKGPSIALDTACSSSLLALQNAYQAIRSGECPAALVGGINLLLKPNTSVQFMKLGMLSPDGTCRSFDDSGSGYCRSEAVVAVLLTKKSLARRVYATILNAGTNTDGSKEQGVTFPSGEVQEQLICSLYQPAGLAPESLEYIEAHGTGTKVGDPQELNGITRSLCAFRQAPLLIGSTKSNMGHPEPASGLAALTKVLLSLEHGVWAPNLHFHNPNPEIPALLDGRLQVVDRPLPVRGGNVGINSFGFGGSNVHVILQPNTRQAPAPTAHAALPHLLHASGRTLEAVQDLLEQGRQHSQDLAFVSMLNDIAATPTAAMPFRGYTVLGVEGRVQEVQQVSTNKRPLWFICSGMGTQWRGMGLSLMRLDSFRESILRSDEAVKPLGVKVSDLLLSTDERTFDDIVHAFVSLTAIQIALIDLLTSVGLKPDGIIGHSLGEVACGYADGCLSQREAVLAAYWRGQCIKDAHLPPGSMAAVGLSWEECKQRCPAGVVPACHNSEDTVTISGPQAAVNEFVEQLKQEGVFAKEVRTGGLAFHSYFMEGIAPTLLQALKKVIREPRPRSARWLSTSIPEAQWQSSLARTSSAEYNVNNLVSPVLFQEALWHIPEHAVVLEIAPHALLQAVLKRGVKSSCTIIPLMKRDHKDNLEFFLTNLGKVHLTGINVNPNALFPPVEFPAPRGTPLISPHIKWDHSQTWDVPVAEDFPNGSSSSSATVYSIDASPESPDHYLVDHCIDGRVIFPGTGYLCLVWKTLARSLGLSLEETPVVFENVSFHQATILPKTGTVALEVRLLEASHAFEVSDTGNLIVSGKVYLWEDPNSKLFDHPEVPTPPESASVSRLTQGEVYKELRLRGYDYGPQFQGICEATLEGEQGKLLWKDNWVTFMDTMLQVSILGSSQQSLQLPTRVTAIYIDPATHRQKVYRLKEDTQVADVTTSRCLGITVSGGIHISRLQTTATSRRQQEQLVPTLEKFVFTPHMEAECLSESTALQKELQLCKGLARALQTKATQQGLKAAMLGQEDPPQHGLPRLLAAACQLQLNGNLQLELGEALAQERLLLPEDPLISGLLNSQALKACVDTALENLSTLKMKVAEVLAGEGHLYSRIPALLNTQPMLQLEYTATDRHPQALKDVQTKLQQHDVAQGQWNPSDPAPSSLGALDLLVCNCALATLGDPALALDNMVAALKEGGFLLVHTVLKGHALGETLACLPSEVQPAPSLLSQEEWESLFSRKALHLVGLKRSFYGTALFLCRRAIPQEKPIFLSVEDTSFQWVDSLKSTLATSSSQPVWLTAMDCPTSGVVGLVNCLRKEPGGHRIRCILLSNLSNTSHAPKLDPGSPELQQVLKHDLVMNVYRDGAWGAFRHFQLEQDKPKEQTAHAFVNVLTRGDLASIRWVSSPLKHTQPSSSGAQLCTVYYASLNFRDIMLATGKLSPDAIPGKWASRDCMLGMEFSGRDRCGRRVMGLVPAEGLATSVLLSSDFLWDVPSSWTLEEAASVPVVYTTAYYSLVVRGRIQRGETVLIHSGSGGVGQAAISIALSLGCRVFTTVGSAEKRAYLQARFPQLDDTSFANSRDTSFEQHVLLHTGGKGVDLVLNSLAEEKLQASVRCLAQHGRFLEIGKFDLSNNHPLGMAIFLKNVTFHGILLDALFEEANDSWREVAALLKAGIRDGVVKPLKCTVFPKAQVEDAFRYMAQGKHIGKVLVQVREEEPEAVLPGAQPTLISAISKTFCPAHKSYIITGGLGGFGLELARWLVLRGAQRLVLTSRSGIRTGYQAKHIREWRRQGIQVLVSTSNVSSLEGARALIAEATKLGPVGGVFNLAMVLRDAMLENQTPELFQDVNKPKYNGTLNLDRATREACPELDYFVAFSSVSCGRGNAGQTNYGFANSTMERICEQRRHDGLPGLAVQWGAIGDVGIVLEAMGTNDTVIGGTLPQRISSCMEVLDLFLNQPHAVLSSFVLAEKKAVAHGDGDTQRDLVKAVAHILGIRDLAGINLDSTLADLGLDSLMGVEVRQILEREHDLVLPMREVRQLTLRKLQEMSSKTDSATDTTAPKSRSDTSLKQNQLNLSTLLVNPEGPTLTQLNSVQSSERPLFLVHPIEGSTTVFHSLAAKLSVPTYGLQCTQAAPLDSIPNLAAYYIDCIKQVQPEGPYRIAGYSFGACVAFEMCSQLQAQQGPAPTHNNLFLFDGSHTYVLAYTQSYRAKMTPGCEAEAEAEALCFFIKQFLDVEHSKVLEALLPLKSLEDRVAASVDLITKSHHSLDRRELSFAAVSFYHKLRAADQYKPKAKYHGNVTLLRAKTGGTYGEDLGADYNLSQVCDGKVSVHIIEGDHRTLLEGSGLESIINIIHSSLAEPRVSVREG

[4] = Hypertrophy of the adrenal; design: species or system mice; details: mouse, in vivo
[5] = Table 1, 20 mg/kg/day I.P., male mice, N = 6, 14th day, control value 137 mg %, read-out: Serum Triglyceride, 14th day
[6] = Table 3, mice, N = 6, control 138 mg %, read-out: serum triglycerides
[7] = 216 h, Table 1, 20 mg/kg/day I.P., male CF1 mice, N = 6, 9th day, control value 118 mg %, read-out: Serum Cholesterol, 9th day
[8] = 216 h, Table 3, mice, N = 6, 9th day, control 115 mg %, read-out: serum cholesterol, 9th day
[9] = 384 h, Table 1, 20 mg/kg/day I.P., male CF1 mice, N = 6, 16th day, control value 122 mg %, read-out: Serum Cholesterol, 16th day
[10] = 384 h, Table 3, mice, N = 6, 16th day, control 118 mg %, read-out: serum cholesterol, 16th day

Citrate Lyase (Citrate Lyase): 72 ± 9 % Control
Acetyl-CoA Synthetase (Acetyl-CoA Synthetase): 44 ± 11 % Control
in vitro AcCoA synthetase (Acetyl-CoA Synthetase): 82 ± 7 % Control
Acetyl-CoA Carboxylase (Acetyl-CoA Carboxylase): 76 ± 3 % Control
Fatty Acid Synthetase (Fatty Acid Synthetase): 75 ± 10 % Control
SMILES: CCCCN1C(=O)c2ccccc2C1=O [N--n-Butylphthalimide]
response vs control in vivo at 20 mg/kg/day (serum triglyceride; [5]): 82 ± 10%
response vs control in vivo at 20 mg/kg/day (serum triglyceride; [6]): 82 ± 16%
response vs control in vivo at 20 mg/kg/day (serum cholesterol; [7]): 72 ± 11%
response vs control in vivo at 20 mg/kg/day (serum cholesterol; [8]): 72 ± 10%
response vs control in vivo at 20 mg/kg/day (serum cholesterol; [9]): 54 ± 6%
response vs control in vivo at 20 mg/kg/day (serum cholesterol; [10]): 54 ± 6%

Citrate Lyase (Citrate Lyase): 42 ± 6 % Control
Acetyl-CoA Synthetase (Acetyl-CoA Synthetase): 70 ± 8 % Control
Acetyl-CoA Carboxylase (Acetyl-CoA Carboxylase): 8 ± 4 % Control
Fatty Acid Synthetase (Fatty Acid Synthetase): 105 ± 8 % Control
SMILES: O=C1NC(=O)c2ccccc21 [Phthalimide]
response vs control in vivo at 20 mg/kg/day (serum triglyceride; [5]): 44 ± 8%
response vs control in vivo at 20 mg/kg/day (serum cholesterol; [7]): 63 ± 13%
response vs control in vivo at 20 mg/kg/day (serum cholesterol; [9]): 57 ± 7%

The remaining lines, values behind:

SMILES: CC(=O)CN1C(=O)c2ccccc2C1=O [1-N--Phthalimidopropan-2-one]
uterotropic effects [1]: nor did the drug demonstrate uterotropic effects
response vs control in vivo at 20 mg/kg/day (serum triglyceride; [5]): 48 ± 10%
response vs control in vivo at 20 mg/kg/day (serum triglyceride; [6]): 48 ± 10%
Citrate Lyase (Citrate Lyase): 76 ± 4 % Control
LD50 [2]: > 2000 mg/kg
deaths (mice): no deaths were observed at this concentration
Acetyl-CoA Synthetase (Acetyl-CoA Synthetase): 58 ± 7 % Control
in vitro AcCoA synthetase (Acetyl-CoA Synthetase): 58 ± 7 % Control
Acetyl-CoA Carboxylase (Acetyl-CoA Carboxylase): 24 ± 4 % Control
decrease in the size of the vas deferens, vesicular or testes [3]: no decrease in the size of the vas deferens, vesicular or testes
response vs control in vivo at 20 mg/kg/day (serum cholesterol; [7]): 80 ± 16%
response vs control in vivo at 20 mg/kg/day (serum cholesterol; [8]): 80 ± 16%
response vs control in vivo at 20 mg/kg/day (serum cholesterol; [9]): 67 ± 12%
response vs control in vivo at 20 mg/kg/day (serum cholesterol; [10]): 67 ± 12%
Fatty Acid Synthetase (Fatty Acid Synthetase): 91 ± 9 % Control
hypertrophy of the adrenal [4]: no hypertophy of the adrenal

SMILES: O=C(O)CCN1C(=O)c2ccccc2C1=O [3-N--Phthalimidopropionic Acid]
response vs control in vivo at 20 mg/kg/day (serum triglyceride; [5]): 58 ± 9%
response vs control in vivo at 20 mg/kg/day (serum triglyceride; [6]): 58 ± 10%
Citrate Lyase (Citrate Lyase): 87 ± 6 % Control
Acetyl-CoA Synthetase (Acetyl-CoA Synthetase): 57 ± 10 % Control
in vitro AcCoA synthetase (Acetyl-CoA Synthetase): 57 ± 7 % Control
Acetyl-CoA Carboxylase (Acetyl-CoA Carboxylase): 18 ± 4 % Control
response vs control in vivo at 20 mg/kg/day (serum cholesterol; [7]): 74 ± 10%
response vs control in vivo at 20 mg/kg/day (serum cholesterol; [8]): 74 ± 7%
response vs control in vivo at 20 mg/kg/day (serum cholesterol; [9]): 55 ± 12%
response vs control in vivo at 20 mg/kg/day (serum cholesterol; [10]): 55 ± 11%
Fatty Acid Synthetase (Fatty Acid Synthetase): 107 ± 7 % Control

SMILES: O=C1NS(=O)(=O)c2ccccc21 [Saccharin]
response vs control in vivo at 20 mg/kg/day (serum triglyceride; [5]): 51 ± 16%
Citrate Lyase (Citrate Lyase): 65 ± 6 % Control
Acetyl-CoA Synthetase (Acetyl-CoA Synthetase): 61 ± 7 % Control
Acetyl-CoA Carboxylase (Acetyl-CoA Carboxylase): 9 ± 2 % Control
response vs control in vivo at 20 mg/kg/day (serum cholesterol; [7]): 68 ± 11%
response vs control in vivo at 20 mg/kg/day (serum cholesterol; [9]): 67 ± 10%
Fatty Acid Synthetase (Fatty Acid Synthetase): 93 ± 5 % Control

SMILES: O=C1CCC(=O)N1 [Succinimide]
response vs control in vivo at 20 mg/kg/day (serum triglyceride; [5]): 68 ± 7%
Citrate Lyase (Citrate Lyase): 38 ± 3 % Control
Acetyl-CoA Synthetase (Acetyl-CoA Synthetase): 74 ± 6 % Control
Acetyl-CoA Carboxylase (Acetyl-CoA Carboxylase): 87 ± 7 % Control
response vs control in vivo at 20 mg/kg/day (serum cholesterol; [7]): 78 ± 9%
response vs control in vivo at 20 mg/kg/day (serum cholesterol; [9]): 73 ± 12%
Fatty Acid Synthetase (Fatty Acid Synthetase): 98 ± 9 % Control
